The text below walks through data of US7521427B2 (Georgia Tech Research Corporation, priority 2004, dated 2009).

Like-named read-outs stand apart in the source and are kept apart here.

Assay [1] concerns the target purified recombinant rhodesain (Trypanosoma brucei rhodesiense, UniProt Q95PM0). Description: Rhodesain IC50 determination. In kind it is biochemical, Trypanosoma brucei rhodensiense. As to conditions: for IC50: rhodesain 3 nM, 5 minutes preincubation at room temperature, pH 5.5. The method, then:
(§1) Inhibitors were screened for effectiveness against purified recombinant cruzain and rhodesain. Cruzain (2 nM) or rhodesain (3 nM) was incubated with 0.0001 to 1 μM inhibitor in 100 mM sodium acetate buffer, pH 5.5 and 5 mM DTT (buffer A), for 5 minutes at room temperature. Buffer A containing Cbz-Phe-Arg-AMC (Bachem, KM=1 μM, AMC=7-amino-4-methylcoumarin) was added to the enzyme and inhibitor to give 20 or 10 μM substrate concentration for cruzain and rhodesain, respectively, in 200 μL. The increase in fluorescence (excitation at 355 nm and emission at 460 nm) was followed with an automated microtiter plate spectrofluorimeter (Molecular Devices, Flex Station). Inhibitor stock solutions were prepared at 20 mM in DMSO and serial dilutions were made in DMSO (0.7% DMSO in assay). Controls were performed using enzyme alone, and enzyme with DMSO. IC50 values were determined graphically using inhibitor concentrations in the linear portion of a plot of enzyme activity versus log [I] (7 concentrations tested with at least 2 in the linear range).

The target in assay [2] is T1, cathepsin B (Homo sapiens, UniProt P07858). Description: Cathepsin B incubation method inhibition assay. The format is biochemical. As to conditions: pH 6.0, 23° C., N.I. = no inhibition after 20 minutes of incubation. How it is done: (§2) The incubation method was used to measure the irreversible inhibition of papain and cathepsin B. With cathepsin B, 30 μL of a stock inhibitor solution was added to 300 μL of a 0.1 M potassium phosphate buffer containing 1.25 mM EDTA, 0.01% Brij 35 at pH 6.0, followed by the addition of 30 μL of a freshly prepared cathepsin B solution (approximate concentration 6.98×10^−3 μg/μL) in the same potassium phosphate buffer containing 1 mM DTT (freshly prepared). Aliquots (50 μL) from the inhibition mixture were withdrawn at various time intervals and added to 200 μL of a 0.1 M potassium phosphate buffer containing 1.25 mM EDTA, 0.01% Brij 35 at pH 6.0, and the substrate Cbz-Arg-Arg-AMC (499 μM). The release of 7-amino-4-methylcoumarin was monitored (λex=360 nm, λem=465 nm) using a Tecan Spectra Fluor microplate reader. Pseudo first-order inactivation rate constants were obtained from plots of In vt/vo versus time.

The target in a further assay is T2, papain (Carica papaya, UniProt P00784).
T2 construct: purchased
T2 sequence (P00784 134-345): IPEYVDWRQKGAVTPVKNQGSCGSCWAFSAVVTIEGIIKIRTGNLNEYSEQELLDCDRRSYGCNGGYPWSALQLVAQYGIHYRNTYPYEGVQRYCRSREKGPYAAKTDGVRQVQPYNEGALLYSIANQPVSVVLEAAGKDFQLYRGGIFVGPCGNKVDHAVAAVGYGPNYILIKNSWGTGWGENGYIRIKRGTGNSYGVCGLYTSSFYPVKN
Description: Papain incubation method inhibition assay. In kind it is biochemical. Conditions: for kinact/KI: pH 7.5, read-out: kobs/[I] Papain, incubation method; for kobs/[I] Papain: incubation method, pH 7.5. The method, then: as §2
The incubation method was also used for commercially available papain. The inhibition incubation buffer for papain was 50 mM Hepes buffer at pH 7.5, containing 2.5 mM DTT (dithiothreitol) and 2.5 mM EDTA. The assay used the substrate Cbz-Phe-Arg-pNA (53.7 μM) in the same buffer. The approximate concentration of papain added to the incubation buffer was 0.29 mg/mL. The release of p-nitroanilide was monitored at 405 nm with a Molecular Devices Thermomax microplate reader. All assays were run in duplicate.

Assay [3] deals with purified recombinant cruzain (Trypanosoma cruzi, UniProt P25779). Description: Cruzain IC50 determination. As to conditions: for IC50: cruzain 2 nM, 5 minutes preincubation at room temperature, pH 5.5. In kind it is biochemical. The method, then:
as §1

In assay [4] the target is T3, cathepsin L (Homo sapiens, UniProt P07711).
T3 construct: purchased Athens Research & Technology (Athens, Ga.)
Description: Cathepsin L progress curve inhibition assay. In kind it is biochemical. As to conditions: corrected for substrate; for kinact/KI: pH 5.5, progress curve method, read-out: kobs/[I] Cathepsin L. The method, then:
Cathepsin L was purchased from Athens Research & Technology (Athens, Ga.) in a 20 mM malonate buffer solution at pH 5.5 with 1 mM EDTA and 400 mM NaCl with a specific activity of 4.133 U/mg. The progress of cathepsin L inhibition was conducted with 243 μL of a solution of 0.25 M NaAc, 2 mM EDTA, 0.015% Brij, 5 mM DTT (dithiothreitol) at pH 5.5, 4 μL of Cbz-Phe-Arg-AMC substrate solution (16 mM) in DMSO (2% final concentration). Activity was monitored by following the change in fluorescence for 20 min at 465 nm. The kobs values were obtained by non-linear regression analysis and corrected for substrate (1+[S]/KM=1.274). All assays were run in duplicate and the standard deviation was determined.

The target in another assay is T4, calpain I (Homo sapiens, UniProt P07384).
T4 construct: purchased Calbiochem (La Jolla, Calif.)
T4 sequence (P07384 1-714): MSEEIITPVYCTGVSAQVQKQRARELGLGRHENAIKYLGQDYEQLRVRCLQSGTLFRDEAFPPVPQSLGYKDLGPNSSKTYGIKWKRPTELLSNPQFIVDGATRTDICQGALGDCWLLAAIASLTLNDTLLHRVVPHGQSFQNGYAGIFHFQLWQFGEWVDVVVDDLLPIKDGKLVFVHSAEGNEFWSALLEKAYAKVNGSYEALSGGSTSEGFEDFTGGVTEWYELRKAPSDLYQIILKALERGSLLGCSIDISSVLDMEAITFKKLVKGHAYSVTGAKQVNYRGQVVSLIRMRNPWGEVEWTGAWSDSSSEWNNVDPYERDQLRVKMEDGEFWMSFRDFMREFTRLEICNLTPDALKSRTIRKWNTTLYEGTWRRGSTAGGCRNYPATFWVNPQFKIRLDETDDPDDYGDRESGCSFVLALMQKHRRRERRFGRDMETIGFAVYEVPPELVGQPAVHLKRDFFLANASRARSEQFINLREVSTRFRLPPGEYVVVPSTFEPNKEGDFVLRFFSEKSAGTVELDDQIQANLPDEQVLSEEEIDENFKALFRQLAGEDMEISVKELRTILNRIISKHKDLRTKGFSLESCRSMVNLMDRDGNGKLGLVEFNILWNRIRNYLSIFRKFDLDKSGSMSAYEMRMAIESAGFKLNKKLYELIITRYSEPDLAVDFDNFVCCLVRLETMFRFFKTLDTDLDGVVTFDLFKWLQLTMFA
T4 sequence (P04632 1-268 partner): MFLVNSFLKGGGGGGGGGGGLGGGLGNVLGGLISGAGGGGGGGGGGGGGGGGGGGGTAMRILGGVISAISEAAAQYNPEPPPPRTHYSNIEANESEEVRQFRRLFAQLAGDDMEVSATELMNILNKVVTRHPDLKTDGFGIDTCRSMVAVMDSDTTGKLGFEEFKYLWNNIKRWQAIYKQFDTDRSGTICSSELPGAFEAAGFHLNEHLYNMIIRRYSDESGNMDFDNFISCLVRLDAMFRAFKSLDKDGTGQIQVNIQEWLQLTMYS
The assay can be described thus: Calpain I irreversible inhibition assay. In kind it is biochemical, porcine. As to conditions: 23° C.; for kinact/KI: read-out: kobs/[I] Calpain I. The method, then: Calpain I was purchased from Calbiochem (La Jolla, Calif.) in a solution of 30% glycerol at a concentration of 6.96 μM and stored at −20° C. prior to use. The calpain I assay was conducted with 235 μL of a solution of 50 mM Hepes, […], at pH 7.5 (calpain I buffer), 6.5 μL of Suc-Leu-Tyr-AMC substrate solution in DMSO and 4.2 μL of the enzyme solution (6.96 μM) at 23° C. The enzymatic activity was monitored by following the change in fluorescence for 10 min at 465 nm. The k2 values were obtained by non-linear regression analysis and corrected for substrate (1+[S]/KM=1.274). All assays were run in duplicate and the standard deviation was determined.

The target in the next assay is T5, cathepsin H (Homo sapiens, UniProt P09668).
T5 sequence (P09668 98-335): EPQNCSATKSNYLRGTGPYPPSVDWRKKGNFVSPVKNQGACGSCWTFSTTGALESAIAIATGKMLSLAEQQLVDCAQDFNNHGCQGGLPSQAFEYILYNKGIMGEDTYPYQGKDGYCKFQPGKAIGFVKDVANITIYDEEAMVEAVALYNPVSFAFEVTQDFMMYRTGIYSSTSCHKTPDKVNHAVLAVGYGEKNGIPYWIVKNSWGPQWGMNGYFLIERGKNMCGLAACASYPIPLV
As to conditions: irreversible inhibition; cited from earlier work.

For assay [5], the target named is T3, cathepsin L. Conditions: irreversible inhibition; cited from earlier work.
Assay [6] concerns the target T1, cathepsin B. As to conditions: irreversible inhibition; cited from earlier work.
[7] abbreviates: pH 7.5, incubation method, plots of ln vt/v0 vs time.
Where [8] appears, read: pH 7.5, progress curve method, corrected for substrate.

purified recombinant rhodesain, sequence (Q95PM0 entry or part of it): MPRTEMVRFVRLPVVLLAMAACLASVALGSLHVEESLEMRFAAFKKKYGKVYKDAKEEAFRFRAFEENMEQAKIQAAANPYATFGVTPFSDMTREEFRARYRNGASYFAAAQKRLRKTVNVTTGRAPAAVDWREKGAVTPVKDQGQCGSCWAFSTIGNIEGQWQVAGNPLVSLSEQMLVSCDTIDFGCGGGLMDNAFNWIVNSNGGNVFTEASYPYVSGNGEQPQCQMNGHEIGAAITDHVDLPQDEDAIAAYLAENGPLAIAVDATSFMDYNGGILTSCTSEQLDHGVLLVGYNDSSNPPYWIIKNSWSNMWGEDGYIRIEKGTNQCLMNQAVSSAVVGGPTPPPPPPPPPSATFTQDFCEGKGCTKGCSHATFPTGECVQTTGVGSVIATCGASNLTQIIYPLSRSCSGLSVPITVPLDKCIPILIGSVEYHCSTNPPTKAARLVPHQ
T3 sequence (P07711 114-333): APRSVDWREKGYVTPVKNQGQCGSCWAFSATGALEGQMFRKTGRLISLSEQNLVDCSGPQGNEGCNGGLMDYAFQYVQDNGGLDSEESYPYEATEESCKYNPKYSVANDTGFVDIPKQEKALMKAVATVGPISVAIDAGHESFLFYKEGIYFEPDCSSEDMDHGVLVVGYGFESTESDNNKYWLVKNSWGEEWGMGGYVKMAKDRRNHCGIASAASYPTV
purified recombinant cruzain, sequence (P25779 123-467): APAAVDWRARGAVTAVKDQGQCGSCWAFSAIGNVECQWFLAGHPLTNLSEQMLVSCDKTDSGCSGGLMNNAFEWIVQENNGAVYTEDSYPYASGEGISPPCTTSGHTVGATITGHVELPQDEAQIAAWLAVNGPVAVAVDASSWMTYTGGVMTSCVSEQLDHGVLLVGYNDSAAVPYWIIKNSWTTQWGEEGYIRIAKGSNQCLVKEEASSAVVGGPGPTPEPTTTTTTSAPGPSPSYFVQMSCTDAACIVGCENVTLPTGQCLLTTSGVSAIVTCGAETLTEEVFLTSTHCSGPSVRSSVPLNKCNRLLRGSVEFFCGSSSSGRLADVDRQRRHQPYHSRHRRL

For orientation: IC50 means the concentration that gives 50% inhibition. Regarding `C[C@H](NC(=O)OCc1ccccc1)C(=O)NC(=CCS(=O)(=O)c1ccccc1)Cc1ccccc1` (mixture of isomers) [Cbz-Ala-Phe-AS-Ph, Phenyl-3-(N-carbobenzyloxyalanyl)amino-4-phenylbut-2-enyl Sulfone], the IC50 in [1] (IC50 Rhodesain) and in assay [3] (read-out: IC50 Cruzain) was above 10000 nM each time. Besides, on cathepsin B [2], the “kobs/[I] Cathepsin B” value is on record as “N.I.^f”. Further, the kinact/KI at papain was found to be 9 M⁻¹ s⁻¹; on cathepsin L [4], 183 ± 10 M⁻¹ s⁻¹; on calpain I (setting [7]), 3 M⁻¹ s⁻¹.

Regarding `CC(C)C[C@H](NC(=O)OCc1ccccc1)C(=O)NC(=CCS(=O)(=O)c1ccccc1)Cc1ccccc1` (single isomer, unassigned) [Cbz-Leu-Phe-AS-Ph (Isomer B), Phenyl-3-(N-carbobenzyloxyleucyl)amino-4-phenylbut-2-enyl Sulfone], the figures for the IC50 in assay [1] (IC50 Rhodesain) and in assay [3] (read-out: IC50 Cruzain) were 180 nM and 300 nM, respectively. For the same molecule, the “kobs/[I] Cathepsin B” value on cathepsin B [2] is “N.I”. Further, the “kobs/[I] Papain” value on papain is 15 ± 1 M⁻¹ s⁻¹. For the same molecule, the “kobs/[I] Cathepsin L” value at cathepsin L [4] (progress curve method, pH 5.5) was found to be 1062 M⁻¹ s⁻¹. In addition, the kinact/KI at calpain I (setting [8]) was determined as 564 ± 32 M⁻¹ s⁻¹. Further, the “kobs/[I] Calpain I” value on calpain I (progress curve method, corrected for substrate, pH 7.5) came out at 564 M⁻¹ s⁻¹.

For the molecule `CC(C)C[C@H](NC(=O)OCc1ccccc1)C(=O)N[C@H](C=CS(=O)(=O)c1ccccc1)Cc1ccccc1` [reference compound], the “fold less potent with rhodesain than the corresponding allyl sulfone Cbz-Leu-Phe-AS-Ph” value in assay [1] (ratio of IC50 values) is above 12 fold. Moreover, the IC50 came to 500 nM in assay [1] (read-out: IC50 Rhodesain) and 2000 nM in assay [3] (IC50 Cruzain). For the same molecule, the “kobs/[I] Cathepsin B” value at cathepsin B [2] was “N.I”. Further, the kinact/KI was 10 M⁻¹ s⁻¹ at papain, 219 ± 96 M⁻¹ s⁻¹ on cathepsin L [4] and 550 ± 2 M⁻¹ s⁻¹ on calpain I (setting [8]). Further, the “fold less potent with cruzain than the corresponding allyl sulfone Cbz-Leu-Phe-AS-Ph” value in assay [3] (ratio of IC50 values) is “over 30 fold”.

Consider `CC(C)[C@H](NC(=O)OCc1ccccc1)C(=O)NC(=CCS(=O)(=O)c1ccccc1)Cc1ccccc1` (mixture of isomers) [Cbz-Val-Phe-AS-Ph, Phenyl-3-(N-carbobenzyloxyvalyl)amino-4-phenylbut-2-enyl Sulfone], for which the IC50 in [1] (IC50 Rhodesain) turned out to be 5000 nM; in assay [3] (read-out: IC50 Cruzain) it was 6000 nM. Also, the “kobs/[I] Cathepsin B” value on cathepsin B [2] is reported as “N.I”. Also, the kinact/KI on papain was determined as 6 ± 1 M⁻¹ s⁻¹; on cathepsin L [4] it was 310 ± 52 M⁻¹ s⁻¹; at calpain I (setting [7]) it was 3 M⁻¹ s⁻¹.

`CC(C)C[C@H](NC(=O)OCc1ccccc1)C(=O)NC(=CCS(=O)(=O)c1ccccc1)Cc1ccccc1` (single isomer, unassigned) [Cbz-Leu-Phe-AS-Ph (Isomer A), Phenyl-3-(N-carbobenzyloxyleucyl)amino-4-phenylbut-2-enyl Sulfone]: the figures for the IC50 in assay [1] (IC50 Rhodesain) and in assay [3] (read-out: IC50 Cruzain) were 40 nM and 60 nM, respectively. In addition, the “kobs/[I] Cathepsin B” value on cathepsin B [2] was “N.I”. Also, on papain, the “kobs/[I] Papain” value was determined as 49 M⁻¹ s⁻¹. The kinact/KI turned out to be 700 ± 43 M⁻¹ s⁻¹ on cathepsin L [4] and 23 ± 4 M⁻¹ s⁻¹ at calpain I (setting [7]).

For the molecule `CC(C)CCNC(=O)[C@H](CC(C)C)NC(=O)/C=C/C(=O)O` (stereo in doubt) [fumarate derivative of E-64c, trans-HOOCCH═CH—CO-Leu-NH(CH2)2CH(CH3)2], the “inhibition of cathepsin H” value on cathepsin H is “inhibits”. Further, at cathepsin L [5], the “kapp cathepsin L” value is 2272 M⁻¹ s⁻¹. Moreover, the “kapp cathepsin B” value on cathepsin B [6] was 625 M⁻¹ s⁻¹.
